Consider 16 compounds from ChEMBL document CHEMBL3734724, “Anticancer efficacy of unique pyridine-based tetraindoles” (Eur J Med Chem, 2015).

What is called IC50 is the concentration that gives 50% inhibition. A word on the TGI: it is the reduction of tumour growth relative to the control group.

Series [1] is described as follows: Cytotoxicity against human M10 cells assessed as growth inhibition at 20 uM after 48 hrs by MTT assay relative to control. It is filed as cell-based. The conditions noted are these: read-out: GI. For orientation: Tetrazolium dyes change colour on reduction, which living cells bring about.
Series [2] is described as follows: Cytotoxicity against human BT549 cells assessed as growth inhibition at 20 uM after 48 hrs by MTT assay relative to control. The series is classed as functional. The conditions noted are these: BT-549, 48 h, read-out: GI.
Series [3] concerns MDA-MB-231. Briefly: Cytotoxicity against human MDA-MB-231 cells assessed as growth inhibition at 20 uM after 48 hrs by MTT assay relative to control. It is filed as functional. The conditions noted are these: MDA-MB-231, 48 h, read-out: GI.
For series [4], the system named is MDA-MB-231. In words: Cytotoxicity against human MDA-MB-231 cells assessed as growth inhibition after 48 hrs by MTT assay. Conditions: MDA-MB-231, 48 h. It is filed as functional, cell-based.
Series [5] in a line: Cytotoxicity against human Hs578T cells assessed as growth inhibition at 20 uM after 48 hrs by MTT assay relative to control. The conditions noted are these: Hs-578T, read-out: GI. The series is classed as functional.
The nature of series [6]: Cytotoxicity against human M10 cells assessed as growth inhibition after 48 hrs by MTT assay. It is filed as cell-based. The conditions noted are these: M10, 48 h.
A short description of series [7]: Cytotoxicity against human BT549 cells assessed as growth inhibition after 48 hrs by MTT assay. The series is classed as functional, cell-based. Conditions: BT-549, 48 h.
The test system of series [8] is MCF7. In words: Cytotoxicity against human MCF7 cells assessed as growth inhibition at 20 uM after 48 hrs by MTT assay relative to control. The series is classed as functional. Conditions: MCF7, 48 h, read-out: GI.
The test system of series [9] is MCF7. In words: Cytotoxicity against human MCF7 cells assessed as growth inhibition after 48 hrs by MTT assay. The series is classed as functional, cell-based. The conditions noted are these: MCF7, 48 h.
The nature of series [10]: Cytotoxicity against human Hs578T cells assessed as growth inhibition after 48 hrs by MTT assay. It is filed as functional, cell-based. The conditions noted are these: Hs-578T.
The next series has as its system 4T1. In words: Antitumor activity against luciferase-expressing mouse 4T1 cells allografted in athymic nude BALB/c mouse assessed as tumor growth inhibition at 12.5 mg/kg/week ip administered on first 3 days in first week followed by two shots on day 1 and day 4 at 6.25 mg/kg/week for another 3 weeks measured every other day until day 28 relative to vehicle-treated control. It is filed as functional.

For `N#Cc1ccc2[nH]cc(C(c3ccc(C(c4c[nH]c5ccc(C#N)cc45)c4c[nH]c5ccc(C#N)cc45)nc3)c3c[nH]c4ccc(C#N)cc34)c2c1`, in [1], the inhibition at 48 h, 20 µM worked out at 0%. Besides, the inhibition of growth at 20 µM in [2] was 28%; in the series on MDA-MB-231 [3], 0%; in [5], 22%; in the series on MCF7 [8], 0%. Further, the IC50 (with MDA-MB-231 [4]; in [6]; in series [7]; in the series with MCF7 [9]; in [10]) was above 20 µM each time.

Turning to `Oc1ccc2[nH]cc(C(c3ccc(C(c4c[nH]c5ccc(O)cc45)c4c[nH]c5ccc(O)cc45)cc3)c3c[nH]c4ccc(O)cc34)c2c1`, in the series on 4T1, the TGI is given as 16%.

`COc1ccc2[nH]cc(C(c3cccc(C(c4c[nH]c5ccc(OC)cc45)c4c[nH]c5ccc(OC)cc45)n3)c3c[nH]c4ccc(OC)cc34)c2c1`: the inhibition at 48 h, 20 µM in series [1] was 0%. Further, the inhibition of growth at 20 µM in the series on MDA-MB-231 [3] was 0%; in series [5] it was 18%; with MCF7 [8] it was 9%. In addition, the IC50 is above 20 µM with MDA-MB-231 [4]; above 20 µM in series [6]; 14 µM in [7]; above 20 µM with MCF7 [9]; above 20 µM in [10].

`Brc1ccc2[nH]cc(C(c3ccc(C(c4c[nH]c5ccc(Br)cc45)c4c[nH]c5ccc(Br)cc45)nc3)c3c[nH]c4ccc(Br)cc34)c2c1`: the inhibition at 48 h, 20 µM in series [1] was 0%. Also, the inhibition of growth at 20 µM in the series with MDA-MB-231 [3] came out at 15%; in series [5], 0%; with MCF7 [8], 0%. Further, the IC50 is above 20 µM with MDA-MB-231 [4]; above 20 µM in series [6]; 10 µM in series [7]; above 20 µM in the series with MCF7 [9]; above 20 µM in [10].

As for `c1ccc2c(C(c3ccc(C(c4c[nH]c5ccccc45)c4c[nH]c5ccccc45)nc3)c3c[nH]c4ccccc34)c[nH]c2c1`, the inhibition at 48 h, 20 µM in series [1] is 26%. The results for the inhibition of growth at 20 µM with MDA-MB-231 [3] and in the series with MCF7 [8] were 4% and 21%, respectively. For the same compound, the IC50 was above 20 µM in the series with MDA-MB-231 [4]; above 20 µM in [6]; 15 µM in series [7]; above 20 µM in the series with MCF7 [9]; 9 µM in [10].

Regarding `Oc1ccc2[nH]cc(C(c3cccc(C(c4c[nH]c5ccc(O)cc45)c4c[nH]c5ccc(O)cc45)n3)c3c[nH]c4ccc(O)cc34)c2c1`, the inhibition at 48 h, 20 µM in [1] worked out at 9%. Besides, the inhibition of growth at 20 µM was 10% in series [2], 2% in series [5] and 11% in the series with MCF7 [8]. Moreover, the IC50 in the series with MDA-MB-231 [4] is 10.3 µM; in series [6] it was above 20 µM; in [7] it was above 20 µM; in the series with MCF7 [9] it was above 20 µM; in series [10], above 20 µM.

For the compound `Fc1ccc2[nH]cc(C(c3ccc(C(c4c[nH]c5ccc(F)cc45)c4c[nH]c5ccc(F)cc45)nc3)c3c[nH]c4ccc(F)cc34)c2c1`, the IC50 was 8.6 µM in the series on MDA-MB-231 [4]; 19 µM in series [6]; 13.1 µM in series [7]; 14 µM in the series on MCF7 [9]; 17 µM in series [10].

Consider `Oc1ccc2c(C(c3ccc(C(c4c[nH]c5cc(O)ccc45)c4c[nH]c5cc(O)ccc45)nc3)c3c[nH]c4cc(O)ccc34)c[nH]c2c1`, for which the inhibition at 48 h, 20 µM in series [1] amounted to 0%. Besides, the inhibition of growth at 20 µM in series [2] stood at 19%; in [5], 0%; in the series with MCF7 [8], 0%. Moreover, the IC50 in the series on MDA-MB-231 [4] was 14 µM; in [6] it was above 20 µM; in series [7] it was above 20 µM; in the series with MCF7 [9], above 20 µM; in series [10], above 20 µM.

As to `Fc1ccc2[nH]cc(C(c3cccc(C(c4c[nH]c5ccc(F)cc45)c4c[nH]c5ccc(F)cc45)n3)c3c[nH]c4ccc(F)cc34)c2c1`, the IC50 in the series on MDA-MB-231 [4] was 9.6 µM; in [6], 12 µM; in series [7], 9.7 µM; with MCF7 [9], 20 µM; in series [10] it was 8.9 µM.

Turning to `Clc1ccc2[nH]cc(C(c3ccc(C(c4c[nH]c5ccc(Cl)cc45)c4c[nH]c5ccc(Cl)cc45)nc3)c3c[nH]c4ccc(Cl)cc34)c2c1`, the inhibition at 48 h, 20 µM in series [1] is 25%. For the same compound, the inhibition of growth at 20 µM in series [2] worked out at 23%; in the series on MDA-MB-231 [3], 9%; in [5], 0%; in the series on MCF7 [8] it was 11%. Further, the IC50 (in the series on MDA-MB-231 [4]; in series [6]; in [7]; in the series on MCF7 [9]; in series [10]) was above 20 µM throughout.

Take `Brc1ccc2[nH]cc(C(c3cccc(C(c4c[nH]c5ccc(Br)cc45)c4c[nH]c5ccc(Br)cc45)n3)c3c[nH]c4ccc(Br)cc34)c2c1`: the inhibition at 48 h, 20 µM in series [1] worked out at 0%. Also, the inhibition of growth at 20 µM in series [2] was 15%; in the series with MDA-MB-231 [3], 13%; in series [5], 0%; in the series with MCF7 [8], 0%. Moreover, the IC50 (with MDA-MB-231 [4]; in series [6]; in series [7]; in the series with MCF7 [9]; in [10]) was above 20 µM throughout.

`c1cc(C(c2c[nH]c3ccccc23)c2c[nH]c3ccccc23)nc(C(c2c[nH]c3ccccc23)c2c[nH]c3ccccc23)c1`: the inhibition at 48 h, 20 µM in series [1] worked out at 32%. For the same compound, the inhibition of growth at 20 µM in [2] was 22%; in the series on MDA-MB-231 [3] it was 29%; in series [5], 8%; in the series on MCF7 [8] it was 47%. Further, the IC50 (in the series on MDA-MB-231 [4]; in [6]; in series [7]; with MCF7 [9]; in [10]) was above 20 µM in each case.

Consider `c1ccc(COc2ccc3[nH]cc(C(c4cccc(C(c5c[nH]c6ccc(OCc7ccccc7)cc56)c5c[nH]c6ccc(OCc7ccccc7)cc56)n4)c4c[nH]c5ccc(OCc6ccccc6)cc45)c3c2)cc1`, for which the inhibition at 48 h, 20 µM in series [1] is 30%. Besides, the inhibition of growth at 20 µM was determined as 40% in series [2], 0% in the series on MDA-MB-231 [3], 0% in [5] and 0% in the series with MCF7 [8]. Further, the IC50 (in the series with MDA-MB-231 [4]; in series [6]; in series [7]; in the series on MCF7 [9]; in series [10]) was above 20 µM each time.

Take `Clc1ccc2[nH]cc(C(c3cccc(C(c4c[nH]c5ccc(Cl)cc45)c4c[nH]c5ccc(Cl)cc45)n3)c3c[nH]c4ccc(Cl)cc34)c2c1`: the inhibition at 48 h, 20 µM in [1] was 28%. The inhibition of growth at 20 µM is 0% in the series with MDA-MB-231 [3], 5% in [5] and 20% with MCF7 [8]. Also, the IC50 is above 20 µM in the series with MDA-MB-231 [4]; above 20 µM in [6]; 6 µM in [7]; above 20 µM in the series on MCF7 [9]; above 20 µM in series [10].

Take `N#Cc1ccc2[nH]cc(C(c3cccc(C(c4c[nH]c5ccc(C#N)cc45)c4c[nH]c5ccc(C#N)cc45)n3)c3c[nH]c4ccc(C#N)cc34)c2c1`: the inhibition at 48 h, 20 µM in series [1] came out at 0%. Further, the figures for the inhibition of growth at 20 µM (with MDA-MB-231 [3]; in [5]; in the series with MCF7 [8]) were 0%, 22% and 13%, respectively. Further, the IC50 with MDA-MB-231 [4] was above 20 µM; in [6], above 20 µM; in [7], 13 µM; in the series with MCF7 [9], above 20 µM; in series [10] it was above 20 µM.

Regarding `COc1ccc2[nH]cc(C(c3ccc(C(c4c[nH]c5ccc(OC)cc45)c4c[nH]c5ccc(OC)cc45)nc3)c3c[nH]c4ccc(OC)cc34)c2c1`, in [1], the inhibition at 48 h, 20 µM came out at 0%. Also, the inhibition of growth at 20 µM stood at 48% in series [2], 11% in the series with MDA-MB-231 [3], 21% in series [5] and 29% in the series on MCF7 [8]. The IC50 (in the series on MDA-MB-231 [4]; in [6]; in series [7]; in the series with MCF7 [9]; in [10]) was above 20 µM in each case.
